The source made the active and inactive calls.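 How the source made its calls: active means over half block of KCNK9 potassium channel current at 10 µM; inactive means the rest.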
Target: Potassium channel subfamily K member 9 (Homo sapiens) (UniProt Q9NPC2)
Assay: TASK3 channel blockers, electrophysiology – cell-based, automated electrophysiology, selectivity assay for TASK1 (KCNK3) inhibitor project, SAR follow-up (AID 652210)
Details: HEK293 inducible KCNK9, QPatch automated patch clamp

Sequence of Potassium channel subfamily K member 9 (Homo sapiens) (Q9NPC2 whole entry, looked up): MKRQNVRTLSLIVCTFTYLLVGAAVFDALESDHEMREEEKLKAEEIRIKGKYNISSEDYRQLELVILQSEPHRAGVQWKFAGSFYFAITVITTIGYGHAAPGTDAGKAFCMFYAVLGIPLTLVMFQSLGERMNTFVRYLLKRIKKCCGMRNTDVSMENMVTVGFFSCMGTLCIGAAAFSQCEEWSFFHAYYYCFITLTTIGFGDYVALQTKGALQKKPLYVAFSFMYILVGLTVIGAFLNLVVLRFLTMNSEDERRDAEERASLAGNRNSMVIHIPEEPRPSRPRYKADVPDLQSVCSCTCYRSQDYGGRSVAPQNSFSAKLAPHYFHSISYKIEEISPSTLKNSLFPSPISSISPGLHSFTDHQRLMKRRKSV

Row | IC50 | SMILES
1 | 0.69 µM | Cc1cccc(C(=O)Nc2cccc(NC(=O)c3ccccc3)c2)c1
2 | inactive | Cc1cccc(C(=O)Nc2cccc(NC(=O)c3ccncc3)c2)c1

Reference: PubChem BioAssay AID652210 (Johns Hopkins Ion Channel Center, 2013)
